Common to all, as to test: NCI anticancer screen, dose series, 48 h
In assay [1] the test system is CCRF-CEM leukemia.
Assay [2] deals with HCT-116 colon.
Assay [3] concerns K-562 leukemia.
Assay [4] has as its system MALME-3M melanoma.
For assay [5], the system named is NCI-H23 lung.
Assay [6] relates to TK-10 renal.
Assay [7] relates to UACC-257 melanoma.
Assay [8] deals with RPMI-8226 leukemia.
For assay [9], the system named is PC-3 prostate.

Where “and” joins values, the source holds several entries; their conditions need not be identical. Equal values may be shown once.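 Five compound concentrations were applied to cells in 96-well plates for 48 hours; endpoints were derived by simple linear interpolation of the resulting dose-response curve. Abbreviation: GI50, concentration required for 50% inhibition of growth. TGI is the concentration that stops growth completely.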

Take `Cc1cc(C)c([O-])c(-[n+]2c(-c3ccccc3)cc(-c3ccccc3)cc2-c2ccccc2)c1`: the TGI in [1] is 10.1 µM; in assay [2], 10.9 µM; in [3], > 100 µM; in assay [4], 16.7 µM; in assay [5], 13.7 µM; in [6], 19.4 µM. The same compound showed a TGI in assay [7] of 10.1 µM.
`CC(=O)NNc1nc(C)c(C(=O)/C=C/c2ccc(N(C)C)cc2)s1`: the TGI in assay [1], in assay [3], in assay [4], in assay [5], in [8] and in [6] was > 100 µM each time. Further, the TGI in [7] is > 100 µM.
With `O=C1CC[C@@H](S(=O)(=O)c2ccccc2)[C@H](/C=C/c2ccccc2)O1`, the TGI in [1], in [2], in assay [3], in assay [4], in assay [5] and in [8] was > 100 µM each time. The TGI in assay [6] and in assay [7] was > 100 µM each time.
Regarding `CCP(C)(=O)CC`, the TGI in assay [1], in [2], in assay [3], in assay [4], in assay [5] and in assay [8] was > 100 µM throughout. The TGI in [6] and in [7] was > 100 µM each time.
Take `CC(=O)[CH-]C(=O)c1ccccc1.CC(=O)[CH-]C(=O)c1ccccc1.CC(=O)[CH-]C(=O)c1ccccc1.[Cl-].[Hf+4]`: the GI50 was 9.36 µM in [1]; 37.6 µM in assay [3]; 14.8 µM in assay [4]; 39.1 µM in [5]; 34.2 µM in assay [8]; 39 µM in [6]. Besides, the GI50 in assay [7] was 19.9 µM. Further, the TGI was > 100 µM in assay [1]; > 100 µM in assay [3]; 39.8 µM in assay [4]; > 100 µM in [5]; > 100 µM in assay [8]; > 100 µM in [6]. In assay [7], the TGI stood at 75.3 µM.
Take `NC(N)=NCCCC(Nc1c2ccccc2nc2ccccc12)C(=O)O` (stereo not given): the TGI in [1], in assay [2], in [3], in assay [4], in assay [5] and in [8] was > 100 µM throughout. Besides, the TGI in [6] and in assay [7] was > 100 µM in each case.
As to `COc1ccc(C(=O)C(c2ccc(OC)cc2)C2(O)C(=O)Nc3c(Cl)cc(Cl)cc32)cc1` (stereo not given), the TGI turned out to be 44.2 µM in [1]; 41.5 µM in [3]; 29.8 µM in assay [4]; 38.5 µM in assay [5]; 33.6 µM in assay [8]; 55 µM in assay [6]. The compound further yielded a TGI in [7] of 31.7 µM.
Consider `C=C1C2CCCC1C1(S(C)(=O)=O)CCCCC21O` (stereo not given), for which the TGI in [2], in assay [3], in assay [4], in assay [5], in assay [8] and in assay [6] was > 100 µM in each case. Also, the TGI in assay [7] was > 100 µM.
Consider `Cc1c(C(=O)/C=C/c2ccc([N+](=O)[O-])cc2)[n+](=O)c2ccccc2n1[O-]`, for which the TGI was 99.2 µM in assay [1]; > 100 µM in [2]; > 100 µM in assay [3]; > 100 µM in [4]; 86.7 µM in [5]; > 100 µM in [8]. The TGI in assay [6] and in assay [7] was > 100 µM in each case.
In the case of `CS(=O)(=O)ON1C(=O)c2ccc(N)cc2C1=O`, the TGI was > 76.7 µM in assay [1]; > 100 µM in assay [2]; > 100 µM in assay [3]; > 100 µM in [4]; > 100 µM in assay [5]; 61.5 µM in assay [8]. Besides, the TGI in [6] is > 100 µM; in assay [7], > 31.6 µM.
In the case of `COC1(OC)CCC2(C)OC(c3ccccc3)C1O2` (stereo not given), the TGI in [1], in [2], in assay [3], in assay [4], in [5] and in assay [8] was > 100 µM throughout. The TGI in assay [6] and in assay [7] was > 100 µM throughout.
Consider `O=C(CC(=O)N1N=C(n2ccc3ccccc32)CC1c1ccccc1)Nc1ccccc1Cl` (stereo not given), for which the TGI in [1], in [2], in assay [3], in [4], in assay [5] and in assay [8] was > 100 µM in each case. In addition, the TGI in assay [6] and in [7] was > 100 µM each time.
As to `CCN(CC)CCN1C(=O)c2c(c3c4cccc(Cl)c4n(C4OC(CO)C(OC)C(O)C4O)c3c3[nH]c4c(Cl)cccc4c23)C1=O` (stereo not given), the GI50 was < 0.0001 µM in assay [1]; < 0.0001 µM in [2]; 0.000398 µM and < 0.0329 µM and < 0.01 µM in assay [5]; 0.000139 µM and < 0.0268 µM in assay [8]. The TGI in assay [8] worked out at 0.00306 µM.
Turning to `CC(=O)[CH-]C(=O)c1ccccc1.CC(=O)[CH-]C(=O)c1ccccc1.CC[C@H](CCC(C)[C@H]1CCC2[C@@H]3CC=C4C[C@@H]([O-])CC[C@]4(C)C3CC[C@@]21C)C(C)C.CC[C@H](CCC(C)[C@H]1CCC2[C@@H]3CC=C4C[C@@H]([O-])CC[C@]4(C)C3CC[C@@]21C)C(C)C.Cl.[Ti+4]` (stereo not given in full), the TGI in assay [1], in [2], in assay [3], in [4], in assay [5] and in assay [8] was > 25 µM each time. Moreover, the TGI in [6] and in assay [7] was > 25 µM in each case.
Regarding `CC(C)(C)c1cc(Cc2ccc(S(C)(=O)=O)cc2)c(O)c(C(C)(C)C)c1`, the TGI in [1] is 30.5 µM; in [2] it was 27 µM; in [3], 31.6 µM; in [4], 32.7 µM; in [5] it was 31.3 µM; in assay [8], 25.8 µM. The TGI in assay [6] came to 31.7 µM; in [7], 31 µM.
On to `CN(C)CC1CCCC/C1=N\OC(=O)c1ccccc1` (stereo not given), for which the TGI in [1], in assay [2], in [3], in assay [4], in [5] and in assay [8] was > 100 µM each time. Moreover, the TGI in [6] and in assay [7] was > 100 µM in each case.
`Cc1[nH]c2ccccc2c1/C=C/c1c(C)[nH]c2ccccc12`: the TGI in assay [1], in assay [2], in assay [3], in [4], in assay [5] and in [8] was > 100 µM throughout. Besides, the TGI in [6] and in assay [7] was > 100 µM in each case.
For `[pH]1p2[pH]p3p1p3[pH]2.c1cc[c]([Ge]([c]2ccccc2)[c]2ccccc2)cc1.c1cc[c]([Ge]([c]2ccccc2)[c]2ccccc2)cc1.c1cc[c]([Ge]([c]2ccccc2)[c]2ccccc2)cc1`, the GI50 was 28 µM in assay [1]; 22.2 µM in [2]; 16.4 µM in assay [3]; 14.3 µM in [4]; 15.3 µM in assay [5]; 17.6 µM in assay [8]. In addition, the GI50 is 18.5 µM in assay [6] and 15.2 µM in assay [7]. For the same compound, the TGI in [1] is > 100 µM; in [2], 62.3 µM; in [3] it was 43.5 µM; in assay [4], 28.1 µM; in [5] it was 31.2 µM; in assay [8] it was 75.5 µM. Further, the values for the TGI in [6] and in [7] were 33.5 µM and 31.7 µM, respectively.
As to `NC(=S)N/N=C/C(O[C@@H](/C=N/NC(N)=S)CO)n1cnc2c(N)ncnc21` (stereo not given in full), the TGI is > 100 µM in [1]; > 61.9 µM in assay [2]; > 100 µM in assay [3]; > 100 µM in assay [4]; > 100 µM in assay [5]; > 72.7 µM in assay [8]. Also, the TGI in assay [6] and in assay [7] was > 100 µM throughout.
`CCOC(=O)C1(C)C2=CC=C(O2)C(C)(C)C2=CC=C(O2)C(C)(C)C2=CC=C(O2)C(C)(C)C2=CC=C1O2`: the TGI in assay [1], in assay [2], in assay [3], in [4], in [5] and in assay [6] was > 100 µM each time. Moreover, the TGI in assay [7] is > 100 µM.
As for `COc1c(CC(C)=O)c2ccccc2n1C(C)=O`, the TGI in assay [1], in [2], in [3], in assay [5], in [8] and in assay [7] was > 100 µM throughout.
As to `Cc1cc(NS(=O)(=O)c2ccc(NC(=O)c3cccc4c(Nc5ccc(S(=O)(=O)Nc6cc(C)on6)cc5)c5ccc(Cl)cc5nc34)cc2)no1`, the TGI was > 100 µM in [1]; 57.5 µM in assay [2]; > 100 µM in [3]; > 100 µM in assay [4]; > 100 µM in assay [5]; > 100 µM in assay [8]. The TGI in assay [6] and in [7] was > 100 µM in each case.
Take `[CH3][Ge]([CH3])([CH2]CC#N)[S]c1ccccc1`: the GI50 is 1.38 µM in assay [1]; 8 µM in [3]; 73.7 µM in [4]; 18.3 µM in [5]; 16.2 µM in assay [8]; 24.4 µM in [6]. Further, in assay [7], the GI50 was 22.7 µM. Besides, the TGI in assay [1] was 4.35 µM; in assay [3], > 100 µM; in [4] it was > 100 µM; in [5], 46.4 µM; in assay [8], 53.2 µM; in assay [6], 72.8 µM. Moreover, the TGI in [7] was 70.7 µM.
With `N#CC(Cl)CS(=O)(=O)c1ccccc1` (stereo not given), the TGI is 12.2 µM in assay [2]; 4.85 µM in assay [3]; 4.54 µM in [4]; 33.5 µM in [5]; 31.6 µM in assay [9]; 14.1 µM in [8]. Moreover, the TGI in [6] came out at 6.85 µM; in assay [7], 14 µM.
`CCCCN(CCCC)CC(C(=O)Nc1ccc([N+](=O)[O-])cc1[N+](=O)[O-])/C(C)=N\NC(=O)c1ccncc1` (stereo not given): the TGI in assay [1], in assay [3], in assay [4], in assay [5], in assay [8] and in assay [6] was > 100 µM each time. The TGI in assay [7] is > 100 µM.
Take `Nc1nc2c(ncn2C2OC(CO)C(O)C2O)c(=O)o1` (stereo not given): the TGI in assay [1], in assay [2], in assay [3], in assay [4], in [5] and in assay [9] was > 100 µM each time. Further, the TGI in assay [8], in assay [6] and in assay [7] was > 100 µM in each case.
As to `O=C1C=C(Nc2cc(Cl)ccc2Cl)c2ccccc2C1=O`, the TGI in [2] is > 100 µM; in [3] it was 36.8 µM; in [4] it was 39.4 µM; in assay [5], 39.3 µM; in assay [8], 68 µM; in assay [7], 41.8 µM.
Consider `c1ccc(-c2sc(-c3ccccc3)c3c2C(c2ccccc2)c2c(-c4ccccc4)sc(-c4ccccc4)c2C3c2ccccc2)cc1` (stereo not given), for which the TGI in assay [1], in assay [2], in assay [3], in assay [4], in assay [5] and in assay [8] was > 100 µM each time. Moreover, the TGI in assay [6] and in [7] was > 100 µM throughout.
`Oc1ccc(I)c2cccnc12`: the TGI in assay [1] is 9.68 µM; in [2], > 100 µM; in assay [3], 23.8 µM; in [4], 61.8 µM; in [5], 55.2 µM; in assay [8], 62.9 µM. Moreover, the TGI in assay [6] is > 100 µM; in assay [7] it was 73.8 µM.
